Data as given in patent US20070059364A1, “Active substance combination comprising a compound with npy receptor affinity and a compound with 5-ht6 receptor affinity” (Laboratorios Del Dr. Esteve S.A., priority 2003, published 2007).

SMILES | melting point
Cl.O=S(=O)(C1CCCCC1)n1cc(C2=CCN3CCCC3C2)c2cc(F)ccc21 (stereo not drawn) [Example 4h, 1-Cyclohexanesulfonyl-5-fluoro-3-(1,2,3,5,8,8a-hexahydro-indolizine-7-yl)-1H-indole hydrochloride] | 263 °C (dec.)
Cc1c(S(=O)(=O)Nc2cccc3ccn(CCN(C)C)c23)sc2ccc(Cl)cc12 [Example 2g, N-[1-(2-dimethylaminoethyl)-1H-indole-7-yl]-5-chloro-3-methylbenzo[b]thiophene-2-sulfonamide] | 57 to 65 °C
O=C(CN1CCC(N2C(=O)OCc3ccccc32)CC1)Nc1ccc2c(c1)CCC2=O | 206 to 209 °C
Cl.O=C(CN1CCC(N2C(=O)OCc3cc(Cl)ccc32)CC1)Nc1ccc(Cl)cc1 | 279 to 282 °C
CN(C)CCn1ccc2c(NS(=O)(=O)c3ccc(-c4ccccc4)cc3)cccc21 [Example 4d, N-[1-(2-dimethylaminoethyl)-1H-indole-4-yl]-4 phenylbenzenesulfonamide] | 137 to 140 °C
Cc1c(S(=O)(=O)Nc2ccc3[nH]cc(CCN4CCOCC4)c3c2)sc2ccc(Cl)cc12 | 200 to 201 °C
CN(C)CCn1ccc2cc(NS(=O)(=O)/C=C/c3ccccc3)ccc21 | 108 to 111 °C
Cc1cccc2c1N(C1CCN(CC(=O)Nc3ccc4c(c3)C(O)c3ccccc3-4)CC1)C(=O)OC2.Cl (stereo not drawn) | 283 to 285 °C
CCN(CC)CCc1c[nH]c2ccc(NS(=O)(=O)/C=C/c3ccccc3)cc12 | 125 to 130 °C
Cc1cccc2c1COC(=O)N2C1CCN(CC(=O)Nc2ccc3[nH]c4ccccc4c3c2)CC1 | 213 °C
Cc1ccc2c(c1)COC(=O)N2C1CCN(CC(=O)Nc2ccc(C3CCCCC3)cc2)CC1.Cl | 242 to 246 °C
Cc1cccc2c1N(C1CCN(S(=O)(=O)c3cccc(Cl)c3Cl)CC1)C(=O)OC2 | 184 to 185 °C
CC(C)N(c1ccccc1)c1ccc(NC(=O)CN2CCC(N3C(=O)OCc4ccccc43)CC2)cc1.Cl | 171 to 173 °C

Continued, values first:

melting point | SMILES
82 to 92 °C | Cc1c(S(=O)(=O)Nc2ccc3c(ccn3CCCN3CCCCC3)c2)sc2ccc(Cl)cc12 [Example 43e, 5-chloro-3-methyl-N-(1-(3-(piperidin-1-yl)propyl)-1H-indol-5-yl)benzo[b]thiophene-2-sulfonamide]
59 to 62 °C | O=S(=O)(Nc1ccc2ccn(CCN3CCCC3)c2c1)c1ccc(Oc2ccccc2)cc1 [Example 15f, 4-Phenoxy-N-(1-(2-(pyrrolidin-1-yl)ethyl)-1H-indol-6-yl)-benzenesulfonamide]
172 to 173 °C | CCN(CC)CCc1c[nH]c2ccc(NS(=O)(=O)c3ccc4ccccc4c3)cc12 [Example 17c, N-[3-(2-diethylaminoethyl)-1H-indol-5-yl]naphthalene-2-sulphonamide]
124 to 126 °C | CN(C)CCn1ccc2cc(NS(=O)(=O)c3cc(Cl)cc(Cl)c3)ccc21 [Example 12e, N-[1-(2-dimethylaminoethyl)-1H-indole-5-yl]-3,5-dichlorobenzenesulfonamide]
53 to 57 °C | O=S(=O)(Nc1ccc2ccn(CCN3CCCC3)c2c1)c1c(Cl)nc2sccn12 [Example 12f, 6-Chloro-N-[1-[2-(pyrrolidin-1-yl)ethyl]-1H-indol-6-yl]-imidazo[2,1-b]thiazole-5-sulfonamide]
226 to 227 °C | Cc1c(S(=O)(=O)Nc2ccc3[nH]cc(CCN(C)C)c3c2)sc2ccc(Cl)cc12 [Example 7c, N-[3-(2-dimethylaminoethyl)-1H-indol-5-yl]-5-chloro-3-methylbenzo[b]thiophene-2-sulphonamide]
62 to 75 °C | CCN(CC)CCn1ccc2cc(NS(=O)(=O)c3csc4ccccc34)ccc21 [Example 41e, N-(1-(2-(diethylamino)ethyl)-1H-indol-5-yl)benzo[b]thiophene-3-sulfonamide]
120 to 123 °C | CN(C)CCn1ccc2cc(NS(=O)(=O)c3cc(Cl)c(Cl)s3)ccc21 [Example 20e, N-[1-(2-dimethylaminoethyl)-1H-indole-5-yl]-4,5-dichlorothiophene-2-sulfonamide]
